# Reference: patent US9211310B2, “Use of a Chinese medicine composition in preparing medicaments for treating secondary prevention of myocardial infarction” (TASLY PHARMACEUTICAL GROUP CO., LTD, priority 2010, dated 2015)
# Test system: patients after acute myocardial infarction
# Test: TCM symptom score, total and single (chest pain, chest tightness, short breath, fatigue, palpitation, spontaneous perspiration, pale complexion), same clinical trial
# Format: in vivo, human
# Set-up: total score of TCM symptom, Mean / total score of TCM symptom, Min / total score of TCM symptom, Max / total score of TCM symptom, Md / change of total score of TCM symptom, Mean / change of total score of TCM symptom, Max / change of total score of TCM symptom, Md: scale not given here
# Settings: PP
# From the text: 3508 patients who were in accordance with the diagnostic standards of AMI for 28 days to 2 years and differentiated as Qi deficiency and blood stagnation syndrome by TCM were studied. 0.5 g Chinese medicine composition prepared by the method of EXAMPLE 1 (Coded as QSYQ) was administrated half an hour after meal, 3 times per day.
# They included the overall survival time, angina pectoris score, TCM symptom score and life quality score, where angina pectoris score, TCM symptom score and life quality score were evaluated at randomization, in 1st, 3rd, 6th, 9th, 12th month after treatment and 18th month after follow-up.
# The analysis method referred to the angina pectoris score.
# [1] = 1 month after treatment-baseline
# [2] = 3 month after treatment-baseline
# [3] = 3 months after treatment-baseline
smiles,measurement,setting,value
"CC(=O)Oc1ccccc1C(=O)O [Control group, aspirine]","change of palpitation −3, number of patients",[1],0
same,"change of palpitation −3, percent of patients",[1],(0.00%)
same,"change of short breath 0, % of patients",[1],(77.53%)
same,"change of short breath 0, number of patients",[1],1132
same,"change of short breath 2, % of patients",[1],(14.59%)
same,"change of short breath 2, number of patients",[1],213
same,"change of short breath 4, % of patients",[1],(1.71%)
same,"change of short breath 4, number of patients",[1],25
same,"change of short breath 6, % of patients",[1],(0.41%)
same,"change of short breath 6, number of patients",[1],6
same,"change of short breath −2, % of patients",[1],(5.27%)
same,"change of short breath −2, number of patients",[1],77
same,"change of short breath −4, % of patients",[1],(0.48%)
same,"change of short breath −4, number of patients",[1],7
same,"change of short breath −6, % of patients",[1],(0.00%)
same,"change of short breath −6, number of patients",[1],0
same,"change of spontaneous perspiration 0, number of patients",[1],1068
same,"change of spontaneous perspiration 0, percent of patients",[1],(73.15%)
same,"change of spontaneous perspiration 1, number of patients",[1],238
same,"change of spontaneous perspiration 1, percent of patients",[1],(16.30%)
same,"change of spontaneous perspiration 2, number of patients",[1],48
same,"change of spontaneous perspiration 2, percent of patients",[1],(3.29%)
same,"change of spontaneous perspiration 3, number of patients",[1],12
same,"change of spontaneous perspiration 3, percent of patients",[1],(0.82%)
same,"change of spontaneous perspiration −1, number of patients",[1],77
same,"change of spontaneous perspiration −1, percent of patients",[1],(5.27%)
same,"change of spontaneous perspiration −2, number of patients",[1],14
same,"change of spontaneous perspiration −2, percent of patients",[1],(0.96%)
same,"change of spontaneous perspiration −3, number of patients",[1],3
same,"change of spontaneous perspiration −3, percent of patients",[1],(0.21%)
same,"change of total score of TCM symptom, Max",[1],24.00
same,"change of total score of TCM symptom, Md",[1],−1.00
same,"change of total score of TCM symptom, Mean",[1],−2.00
same,"change of total score of TCM symptom, Min",[1],−28.00
same,"change of total score of TCM symptom, Max",[2],19.00
same,"change of total score of TCM symptom, Md",[2],−2.00
same,"change of total score of TCM symptom, Mean",[2],−3.05
same,"change of total score of TCM symptom, Min",[2],−28.00
same,"distribution of total score of TCM symptom: Medium, number of patients",3 months after treatment,489
same,"distribution of total score of TCM symptom: Medium, percentage of patients",3 months after treatment,(33.79%)
same,"distribution of total score of TCM symptom: Mild, number of patients",3 months after treatment,946
same,"distribution of total score of TCM symptom: Mild, percentage of patients",3 months after treatment,(65.38%)
same,"distribution of total score of TCM symptom: Severe, number of patients",3 months after treatment,12
same,"distribution of total score of TCM symptom: Severe, percentage of patients",3 months after treatment,(0.83%)
same,"fatigue score 0, % of patients",3 months after treatment,(28.28%)
same,"fatigue score 0, number of patients",3 months after treatment,409
same,"fatigue score 2, % of patients",3 months after treatment,(59.75%)
same,"fatigue score 2, number of patients",3 months after treatment,864
same,"fatigue score 4, % of patients",3 months after treatment,(11.41%)
same,"fatigue score 4, number of patients",3 months after treatment,165
same,"fatigue score 6, % of patients",3 months after treatment,(0.55%)
same,"fatigue score 6, number of patients",3 months after treatment,8
same,"pale complexion score 0, number of patients",3 months after treatment,693
same,"pale complexion score 0, percent of patients",3 months after treatment,(47.89%)
same,"pale complexion score 1, number of patients",3 months after treatment,566
same,"pale complexion score 1, percent of patients",3 months after treatment,(39.12%)
same,"pale complexion score 2, number of patients",3 months after treatment,172
same,"pale complexion score 2, percent of patients",3 months after treatment,(11.89%)
same,"pale complexion score 3, number of patients",3 months after treatment,16
same,"pale complexion score 3, percent of patients",3 months after treatment,(1.11%)
same,"palpitation score 0, number of patients",3 months after treatment,403
same,"palpitation score 0, percent of patients",3 months after treatment,(27.87%)
same,"palpitation score 2, number of patients",3 months after treatment,759
same,"palpitation score 2, percent of patients",3 months after treatment,(52.49%)
same,"palpitation score 4, number of patients",3 months after treatment,261
same,"palpitation score 4, percent of patients",3 months after treatment,(18.05%)
same,"palpitation score 6, number of patients",3 months after treatment,23
same,"palpitation score 6, percent of patients",3 months after treatment,(1.59%)
same,"short breath score 0, % of patients",3 months after treatment,(21.44%)
same,"short breath score 0, number of patients",3 months after treatment,310
same,"short breath score 3, % of patients",3 months after treatment,(59.13%)
same,"short breath score 3, number of patients",3 months after treatment,855
same,"short breath score 6, % of patients",3 months after treatment,(18.74%)
same,"short breath score 6, number of patients",3 months after treatment,271
same,"short breath score 9, % of patients",3 months after treatment,(0.69%)
same,"short breath score 9, number of patients",3 months after treatment,10
same,"spontaneous perspiration score 0, number of patients",3 months after treatment,563
same,"spontaneous perspiration score 0, percent of patients",3 months after treatment,(38.93%)
same,"spontaneous perspiration score 1, number of patients",3 months after treatment,709
same,"spontaneous perspiration score 1, percent of patients",3 months after treatment,(49.03%)
same,"spontaneous perspiration score 2, number of patients",3 months after treatment,167
same,"spontaneous perspiration score 3, number of patients",3 months after treatment,7
same,"spontaneous perspiration score 3, percent of patients",3 months after treatment,(0.48%)
same,"total score of TCM symptom, Max",3 months after treatment,33.00
same,"total score of TCM symptom, Md",3 months after treatment,10.00
same,"total score of TCM symptom, Mean",3 months after treatment,10.88
same,"total score of TCM symptom, Min",3 months after treatment,0.00
same,"change of fatigue 0, % of patients",[3],(63.96%)
same,"change of fatigue 0, number of patients",[3],923
same,"change of fatigue 2, % of patients",[3],(25.50%)
same,"change of fatigue 2, number of patients",[3],368
same,"change of fatigue 4, % of patients",[3],(4.16%)
same,"change of fatigue 4, number of patients",[3],60
same,"change of fatigue 6, % of patients",[3],(0.97%)
same,"change of fatigue 6, number of patients",[3],14
same,"change of fatigue −2, % of patients",[3],(4.85%)
same,"change of fatigue −2, number of patients",[3],70
same,"change of fatigue −4, % of patients",[3],(0.42%)
same,"change of fatigue −4, number of patients",[3],6
same,"change of fatigue −6, % of patients",[3],(0.14%)
same,"change of fatigue −6, number of patients",[3],2
same,"change of pale complexion 0, number of patients",[3],1177
same,"change of pale complexion 0, percent of patients",[3],(81.68%)
same,"change of pale complexion 1, number of patients",[3],217
same,"change of pale complexion 1, percent of patients",[3],(15.06%)
same,"change of pale complexion −1, number of patients",[3],47
same,"change of pale complexion −1, percent of patients",[3],(3.26%)
same,"change of palpitation 0, number of patients",[3],943
same,"change of palpitation 0, percent of patients",[3],(65.35%)
same,"change of palpitation 1, number of patients",[3],356
same,"change of palpitation 1, percent of patients",[3],(24.67%)
same,"change of palpitation 2, number of patients",[3],39
same,"change of palpitation 2, percent of patients",[3],(2.70%)
same,"change of palpitation 3, number of patients",[3],5
same,"change of palpitation 3, percent of patients",[3],(0.35%)
same,"change of palpitation −1, number of patients",[3],99
same,"change of palpitation −1, percent of patients",[3],(6.86%)
same,"change of palpitation −2, number of patients",[3],1
same,"change of palpitation −2, percent of patients",[3],(0.07%)
same,"change of palpitation −3, number of patients",[3],0
same,"change of palpitation −3, percent of patients",[3],(0.00%)
same,"change of short breath 0, % of patients",[3],(70.27%)
same,"change of short breath 0, number of patients",[3],1014
same,"change of short breath 2, % of patients",[3],(21.41%)
